The text below walks through data of patent US20040014676A1, “SRC kinase inhibitors useful for treating osteoporosis” (priority 2001, published 2004).

Usually IC50 stands for the midpoint of a concentration-inhibition curve.

The target of this experiment is T1, Src kinase (Homo sapiens, UniProt P12931).
T1 construct: purchased Upstate Bioteolnology (sic; Upstate Biotechnology); later HMR stock 27597-019E1 #14-117
Briefly: Phosphorylation assay of Src kinase inhibitors (radiometric, 96 well filter plate). In kind it is biochemical. As to conditions: duplicates, tested in the range of 400-0.098 µM; 10 µM peptide substrate (FIYGAFKKKKNH2), 5 µM unlabeled ATP, room temperature 30 min; read-out: IC50. The essentials: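 Radiometric filter-plate assay: Src kinase (1:100 dilution) was incubated with 10 μM peptide FIYGAFKKK-NH2, 5 μM unlabeled ATP and radiolabeled ATP for 30 min at room temperature. Reactions were stopped with 150 mM H3PO4, the peptide was captured on phosphocellulose and scintillation counted. Ki values were determined for some compounds.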
For the compound `C[C@H](c1ccc(O)cc1)[C@H](N)C(=O)NCCCCOc1cc2ccccc2cc1C(=O)NCC(N)=O` [Example 78, 3-[4-[[[(1-OXO-2-AMINO-3(R)-METHYL- 3-(4-HYDROXY)PHENYL)]PROPYL]- AMINO]BUTOXY]-NAPHTHALENE-2- (N-ACETAMIDO)CARBOXAMIDE], the IC50 amounted to 6 µM.
`NC(=O)CNC(=O)c1cc2ccccc2cc1OCCCCN1CCNC(Cc2ccccc2)C1=O` (stereo in doubt) [Example 28, 3-[4-[(2-OXO-3(S)-BENZYL)-PIPERAZIN- 1-YL]BUTOXY]-NAPHTHALENE-2-(N- ACETAMIDO)CARBOXAMIDE]: the IC50 was 27 µM.
The figure for `NC(=O)CNC(=O)c1cc2ccccc2cc1OCCCCNC(=O)[C@@H](N)Cc1ccc(O)c(I)c1` [Example 46, 3-[[4-[[2(S)-AMINO-3(3-IODO-4- HYDROXYPHENYL)-1-OXO]PROPYL]- AMINO]BUTOXY]-NAPHTHALENE-2- (N-ACETAMIDO)CARBOXAMIDE] is 0.31 µM; for `NC(=O)CNC(=O)c1cc2ccccc2cc1NCCCCNC(=O)[C@H](N)Cc1ccc(O)cc1` (stereo in doubt) [Example 123] it is 25 µM.
As for `C[N+](C)(C)[C@@H](Cc1ccccc1)C(=O)NCCCCOc1cc2ccccc2cc1C(=O)NCC(N)=O` [Example 69], the IC50 is 14 µM.
As for “3-[[4-[[1-OXO-2(S)-AMINO-3-(4- HYDROXYPHENYL)]PROPYL]AMINO]BUTOXY]-7-METHOXY- NAPHTHALENE-2-[N-[[(3-HYDROXY- PROPYLAMINO)-CARBONYL]- METHYL]]CARBOXAMIDE [Example 118]”, the IC50 worked out at 47 µM.
Under `CNC(=O)C(Cc1ccc(-c2noc(C)n2)cc1)C(=O)NCCCCOc1cc2ccccc2cc1C(=O)NCC(N)=O` (stereo not shown) [Compound 134, N-(4-{3-[N-(carbamoylmethyl)carbamoyl](2-naphthyloxy)}butyl)-N′-methyl-2-{[4-(5-methyl(1,2,4-oxadiazol-3-yl))phenyl]methyl}propane-1,3-diamide] stands 76 µM; under `NC(=O)CNC(=O)c1cc2ccccc2cc1OCCCCN1CCC[C@H](c2ccccc2)[C@H](N)C1=O` [Example 77, 3-[4-[(2-OXO-3(R)-AMINO-4(R)- PHENYL)HEXAMETHYLENEIMIN-1- YL]BUTOXY]-NAPHTHALENE-2-(N- ACETAMIDO)CARBOXAMIDE], 6 µM; under `NC(=O)CNC(=O)c1cc2ccccc2cc1OCc1ccc(N)cc1` [Example 119, 2-[4-AMINOBENZYLOXY]- NAPHTHALENE-3-[N-ACETAMIDO]- CARBOXAMIDE], 25 µM.
`NC(=O)CNC(=O)[C@@H](Cc1cccc2ccccc12)NCCCCCNC(=O)[C@H](N)Cc1csc2ccccc12` [Example 82, N-[((R)NAPHTH-1-YL)[(AMINO)- (CARBONYL)(METHYL)(AMINO)- (CARBONYL)]METHYL]-5-[N-[[N-[1- OXO-2-AMINO-3-(R)(BENZOTHIOPHEN- 3-YL)]PROPYL]AMINO]PENTYLAMINE]: the IC50 worked out at 6 µM.
Under `NC(=O)CNC(=O)c1cc2ccccc2cc1OCCCCNC(=O)[C@@H](N)Cc1ccc2ccccc2c1` [Example 13, 3-[4-[[2(S)-AMINO-3-(NAPTHYL-2-YL)-1- OXOPROPYL]AMINO]BUTOXY]- NAPHTHALENE-2-[N-(2- AMIDOMETHYL)]CARBOXAMIDE] stands 0.45 µM.
On to `NC(=O)CNC(=O)c1cc2ccccc2cc1OCCCCNC(=O)[C@H](Cc1ccc(O)cc1)NC(=O)OCc1ccccc1` [Example 18, 3-[4-[[2(S)-(N-BENZYLOXY- CARBONYL)AMINO-3-(4-HYDROXY- PHENYL)-1-OXOPROPYL]AMINO]- BUTOXY]-NAPHTHALENE-2-[N-(2- AMIDOMETHYL)]CARBOXAMIDE], for which the IC50 worked out at 32 µM.
As for `CC(C)(C)C(=O)NCCCCOc1cc2ccccc2cc1C(=O)NCC(N)=O` [Example 66, 3-[4-[[(1-OXO-2,2-DIMETHYL)PROPYL]- AMINO]BUTOXY]-NAPHTHALENE-2- (N-ACETAMIDO)CARBOXAMIDE], the IC50 stood at 6 µM.
